Measurements taken from paper PMC8507260, “A2E-induced inflammation and angiogenesis in RPE cells in vitro are modulated by PPAR-α, -β/δ, -γ, and RXR antagonists and by norbixin” (Aging (Albany NY), 2021).

What was measured:
[1] = test system: IL-6; experiment: IL-6 mRNA expression by quantitative RT-PCR in porcine RPE cells; format: cell-based; conditions: T007907 10 μM
Protocol: (§1) Pig eyes were obtained from a local slaughterhouse and transported to the laboratory in ice-cold Ringer solution. After removal of the anterior segment of the eye, the vitreous and neural retina was separated from the RPE and removed. The eyecup was washed twice with phosphate buffer saline (PBS), filled with trypsin (0.25% in PBS) and incubated at 37°C for 1.5 h. RPE cells were harvested by gently pipetting, centrifuged to remove trypsin and re-suspended in Dulbecco’s Modified Eagle Medium (DMEM) supplemented with 20% (v/v) foetal-calf serum (DMEM20%FCS) and 0.1% gentamycin. Cells were seeded into 60 mm diameter Petri dishes, cultured in an atmosphere of 5% CO2/95% air at 37°C, and supplied with fresh medium after 24 hours and 4 days in vitro. For experiments aimed at measuring mRNA or protein expression in RPE, cells were trypsinized after one week in culture and transferred to 24-well or 6-well plates at a density of 1.5 × 10^5 cells/cm^2 in DMEM2%FCS. Norbixin or agonists were added to the medium 24 h after seeding, and antagonists were added to the medium 24 h later. A2E treatment was performed during 19 h before cellular sample preparation. All the drugs used in these experiments were prepared as stock solutions in DMSO.
Total RNA was extracted using the NucleoSpin® RNA kit according to manufacturer’s instructions. RT of 500 ng of RNA was performed using the SuperScript III Reverse Transcriptase following the manufacturer’s instructions. Five ng of cDNA were amplified using the SYBR GREEN real-time PCR method. PCR primers for target genes and housekeeping gene GAPDH were designed using Primer3Plus Bioinformatic software (Table 2). The RT-PCR using the StepOne Plus (Life Technologies, Carlsbad, CA, USA) consisted of incubation at 50°C for 5 min followed by 40 cycles of 95°C for 15 s and of 60°C for 1 min. The reaction was completed by a melt curve stage at 95°C for 15 s, 60°C for 1 min, 95°C for 15 s and a final step at 60°C for 15 s. The relative mRNA expression was calculated using the comparative threshold method (Ct-method) with GAPDH for normalization. All experimental conditions were processed in triplicate and each experiment was done at least 3 times.

[2] = test system: IL-18; experiment: IL-18 mRNA expression by quantitative RT-PCR in porcine RPE cells; format: cell-based
Protocol: as §1, with “All the drugs used in these experiments were prepared as stock solutions in DMSO.” left out
Total RNA was extracted using the NucleoSpin® RNA kit according to manufacturer’s instructions. […] The relative mRNA expression was calculated using the comparative threshold method (Ct-method) with GAPDH for normalization. […]

[3] = biological target: T1, PPAR-γ (Homo sapiens, UniProt P37231); experiment: Transactivation of over-expressed PPAR-γ, luciferase reporter in porcine RPE cells; format: cell-based, pig; set-up: a plasmid expressing each of the full-length PPAR isoforms; host or cells: primary porcine RPE cells; conditions: for inhibition of PPAR-γ transactivation induced by TGZ: NBX 20 μM; for transactivation of over-expressed PPAR-γ by the compound alone: vs DMSO control, A2E 20 μM, NBX increasing concentrations
T1 sequence (P37231 1-505): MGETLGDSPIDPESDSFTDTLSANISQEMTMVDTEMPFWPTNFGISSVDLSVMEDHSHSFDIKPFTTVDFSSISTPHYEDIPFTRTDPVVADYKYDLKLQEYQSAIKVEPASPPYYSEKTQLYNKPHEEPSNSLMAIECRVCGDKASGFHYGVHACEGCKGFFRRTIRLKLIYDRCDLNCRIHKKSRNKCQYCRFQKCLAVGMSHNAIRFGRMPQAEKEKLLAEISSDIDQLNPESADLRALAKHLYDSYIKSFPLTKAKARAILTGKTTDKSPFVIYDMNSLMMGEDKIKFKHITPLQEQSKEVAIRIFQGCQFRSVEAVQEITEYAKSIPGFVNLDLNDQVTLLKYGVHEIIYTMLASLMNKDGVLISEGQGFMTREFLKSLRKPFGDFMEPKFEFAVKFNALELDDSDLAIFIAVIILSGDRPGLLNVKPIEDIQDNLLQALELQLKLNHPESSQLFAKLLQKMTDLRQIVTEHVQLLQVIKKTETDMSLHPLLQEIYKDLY
Protocol: Then the effects of A2E on the endogenous PPAR transactivation in porcine RPE cells were investigated by means of a luciferase assay. […] The level of transactivation of PPAR-α, -β/δ, or -γ isoforms by A2E was determined by co-transfection of porcine RPE cells with a plasmid expressing each of the full-length PPAR isoforms and a plasmid expressing luciferase under the control of the PPAR response element. […] All usual chemicals, primers, and HX531 were from Sigma (St. Louis, MO, USA). Reagents for cell culture, transfection and quantitative RT-PCR were from Thermo Fisher Scientific (Waltham, MA, USA). RNA extraction NucleoSpin® RNA kit was from Macherey Nagel (Düren, Germany). ECL prime and PVDF membrane were from Amersham GE Healthcare (Buckinghamshire, UK). Primary antibodies against the following proteins were used: GAPDH (Santa Cruz Biotechnology, Inc, Dallas, TX, USA); pAKT, AKT, pERK and ERK (Cell Signaling, Danvers, MA, USA). Secondary antibodies were from Jackson ImmunoResearch (Cambridgeshire, UK). […] Cignal Pathway Reporter Assay Kits were from QIAGEN (Frederick, MD, USA). The Dual-Luciferase Reporter Assay System was purchased from Promega (Madison, WI, USA). pcDNA 3.1 (+)-PPARα and pcDNA 3.1 (+)-PPARβ/δ (pig sequence) were purchased from Genscript (Piscataway, NJ, USA). pCMV6-XL4-PPARγ (human sequence) was purchased from Origene (Rockville, MD, USA).
After one week in culture, cells were trypsinized and transferred to a 96-well plate at a density of 6 × 10^4 cells/cm^2 in DMEM2%FCS. The next day, cells were transfected using the Cignal Reporter Assay Kits for PPAR, RXR, AP-1 and NF-κB, according to the manufacturer’s specifications. To measure the specific activation of PPAR isoforms, cells were also co-transfected with PPAR-α, PPAR-β/δ or PPAR-γ expression vectors. Transfection was performed with Lipofectamine and Plus Reagent in serum-free medium. 3 h after the transfection, the medium was replaced and treatments with the molecules to assay were performed. Luciferase activity was measured the next day using the Dual-Luciferase Reporter Assay System. The measurements were performed with a luminometer (Infinite M1000 from Tecan, Mannedorf, Switzerland). Firefly: Renilla activity ratios were calculated for each condition and ratios from transcription factor-responsive reporter transfections were divided by ratios from negative control transfections to obtain relative luciferase unit, as described by the manufacturer. At least 3 independent transfections were performed in triplicate for each condition.

inhibition of PPAR-γ transactivation induced by TGZ ([3]; 1 μM of TGZ)	effect on over-expressed PPAR-γ transactivation induced by A2E ([3]; A2E 20 μM + NBX 20 μM)	inhibition of PPAR-γ transactivation induced by TGZ ([3]; TGZ 10 μM)	SMILES	reduction of IL-6 mRNA expression induced by A2E ([1]; NBX 20 μM with A2E 30 μM, MK886 1 μM, GSK3787 1 μM, HX531 5 μM with A2E 20 μM)	effect on IL-18 expression induced by A2E ([2]; NBX 20 μM + A2E 30 μM, PPAR antagonists)	transactivation of over-expressed PPAR-γ by the compound alone [3]	effect of the compound alone on IL-6 mRNA expression ([1]; vs DMSO control)	effect of the compound alone on IL-18 mRNA expression ([2]; A2E 30 μM vs DMSO control)
partially inhibited	fully abolished	this effect was lost	CC(/C=C/C=C(C)/C=C/C(=O)O)=C\C=C\C=C(C)\C=C\C=C(C)\C=C\C(=O)O (stereo in doubt) [norbixin, 9’-cis-norbixin]	145%	not inhibited	did not demonstrate any transactivation activity		
			CC(C=CC1=C(C)CCCC1(C)C)=CC=CC(C)=Cc1cc(C=CC=C(C)C=CC2=C(C)CCCC2(C)C)cc[n+]1CCO [A2E, N-retinylidene-N-retinylethanolamine]			induced the transactivation	induces the expression	induced by A2E
